Results reported in patent US20040072750A1, “Compounds and methods for the modulation of CD154” (priority 2001, published 2004).
Bridge positions count the residues as written; N and C are the ends. Square brackets hold non-standard residues; d marks the D form. Peptide text beside a SMILES is read from it. hArg = N=C(N)NCCCC[C@H](N)C(=O)O; Mpa = O=C(O)CCS

Tests used:
washed platelets [1] = assay: Western blot analysis of immunoprecipitated platelet CD154 (hydrolysis to 18 kDa sCD154); assay type: cell-based, human
Source text: As previously described, CD154 exists as a 33/31 kDa doublet in unstimulated platelets.

platelets = assay: Platelet function (Accumetrics RPFA) in patients undergoing PCI; assay type: in vivo, human; conditions: 10 minutes post final bolus
Procedure: (§1) Patients (n=45) undergoing PCI were enrolled. The study was approved by the IRB and all patients signed informed consent. Exclusion criteria included higher risk clinical scenarios mandating, according to institutional clinical practice, the use of GP IIb/IIIa antagonists (i.e., acute ST elevation MI or non q-wave MI with CPK elevation, pain at rest with EKG changes <24 hours, visible thrombus, pain refractory to heparin), pre-procedural GP IIb/IIIa inhibitor treatment, restenotic and graft lesions, and standard conditions excluding GP IIb/IIIa inhibitor use.
(§2) All patients received aspirin and intravenous heparin (50-70U/kg) monitored by activated clotting time (ACT) during the procedure. Patients were administered either no GP IIb/IIIa inhibitor, eptifibatide (180 μg/kg double bolus followed by 2 μg/kg/min for 16 h), or abciximab (0.25 mg/kg bolus intravenously followed by 0.125 μg/kg/min for 12 h) at the discretion of the primary operator. Platelet function was monitored using PPACK-anticoagulated blood and the Accumetrics RPFA device at baseline and 10 min post-final bolus. Interventionalists were blinded to RPFA results and not permitted to modify GP IIb-IIIa inhibitor dosing. Post-PCI, patients received clopidogrel (300 mg PO) followed by 75 mg daily.

[2] = Plasma inflammatory markers after PCI (ELISA); assay type: in vivo, human
Procedure: as §1, §2
Venous blood samples were collected prior to (t=0) and at 30 minutes, 2 hours, and 24 hours after the angioplasty wire was advanced across the lesion. Blood was collected into 10 mL tubes with either EDTA (for sCD 154 analysis) or PPACK (for all other analyses) anticoagulant, centrifuged at 4° C., and stored at −80° C. until analysis.
Inflammatory markers in plasma samples were quantified by commercially available ELISA for sCD154 (Alexis BioChemical) with modification (12), RANTES, IL6, sICAM-1 (BioSource), and CRP (Alpha Diagnostic International).
Primary endpoint data are presented as mean±SE. Data were log transformed to achieve a normal distribution verified by Kolmogorov-Smirnov test for normality. Statistical comparisons were performed using two-way ANOVA to determine a difference in mean values over time between the 3 groups. Pair-wise comparisons were performed when the ANOVA false-positive rate was ≦5%. A Bonferroni corrective for 3 pair-wise comparisons was applied, in which the p-value of […] was used to signify a false-positive rate of 5%. For ANOVA with a false-positive rate of ≧5%, the pair-wise comparisons were reported to be statistically nonsignificant (NS). Baseline and procedural characteristics data were analyzed with standard one way ANOVA for continuous data in more than 3 groups and a student's t-test for comparison of 2 groups. A Mann-Whitney Rank Sum test was used for nominal data. Statistical significance was assumed if the false positive rate was ≦5%.

washed platelets [3] = assay: β3 integrin tyrosine-759 phosphorylation staining of platelets spread on sCD154; assay type: cell-based, human; conditions: platelets spread on 10 μg/ml sCD154 coated cover slips
Procedure: Further, cover slips were coated with 10 μg/ml sCD154 for 2 hours at 37° C. and blocked with 5% crystalline BSA (Sigma chemicals). 100 μl of washed platelets at 10^7/ml were allowed to spread for 1 hour at 37° C. Non-adhered platelets were washed off with PBS. Adhered platelets were fixed with 4% para-formaldehyde and permeabilized with 0.5% Triton X-100 and 0.5% BSA in PBS. Permeabilized platelets were blocked with 3% goat serum and 2% BSA for 30 min. followed by incubation with a IIIa(p3) integrin cytoplasmic tyrosine-759 phospho-specific polyclonal antibody for 2 hours at room temperature. After 30 minutes washing with PBS containing 0.1% Triton X-100 and 0.5% BSA, the coverslips were incubated with a Alexa 596 goat anti-rabbit antibody and Alexa fluor 488 phalloidin for 40 min. followed by a brief wash and mounted on slides with VECTASHIELD (Vector laboratories, Burlingame, Calif.). Images were recorded using a digital camera, Hamamatsu, ORCA-ER attached to a Nikon fluorescence microscope, eclipse E1000 (Technical Instruments, San Francisco, Calif.). […] The staining was inhibited by β3 759 phospho-peptide confirming the specificity of the antibody (FIG. 11b).

[4] = tested on: Human umbilical vein endothelial cells (HUVECS); assay: Inflammatory response of endothelial cells to rsCD154 (MCP-1 ELISA, tissue factor clotting assay, ICAM-1/E-Selectin FACS); assay type: cell-based
Procedure: Inflammation in the present invention study was measured by the upregulation of tissue factor on cultured endothelial cells. Endothelial cells were the cells selected for study as this is the most abundant cell exposed to blood and is known to express […], the ligand for CD154 (Yellin, MJ, J. Exp Med, 182: 1857(1995)).
Human umbilical vein endothelial cells (HUVECS) purchased from Clonetics Inc. were cultured with M199 containing 20% FBS, 50 μg/ml endothelial mitogen (Biomedical technologies Inc.) 2 mM glutamine, 1 mM Sodium Pyruvate, 1× Nonessential amino acids, 100 U/ml of penicillin/streptomycin and 100 μg/ml heparin. HUVECS (passage 3-5) grown in 6 well dishes or 96 well tissue culture plates coated with 0.75% bovine skin gelatin (Sigma chemicals) were incubated without and with different concentrations (100 ng-10 μg/ml) of rsCD 154 in the presence of TRAP-1 (monoclonal antibody against hCD154, BD Pharmingen) or MOPC-21 (mouse IgG, Sigma) for 4 hrs at 37° C. in Tyrode's-Hepes buffer (12 mM NaHCO3, 138 mM NaCl, 5.5 mM glucose, 2.9 mM KCl, 10 mM Hepes, 1 mM CaCl2, 1 mM MgCl2, pH 7.4). […]
The supernatants were collected and the concentrations of MCP-1 determined by ELISA. Expression of tissue factor was determined by clotting assays performed with the HUVECS in the 96 well plates. […] The expression of ICAM-1 and E-Selectin was determined by FACS analysis (FACSort, Beckton Dickinson) following release of the HUVECS from the dishes. HUVECS, when exposed to 2 μg/ml rsCD154, secreted 3 fold more MCP-1 after 4 hrs and this increase was blocked by anti-CD154 antibody, but not by an isotype matched control antibody. As measured by clotting assay there was 50% reduction in clotting time, which was reversed in the presence of TRAP-1.

Molecule	hydrolysis of CD154 and release of sCD154 from stimulated platelets (washed platelets [1]; 5 μmol/L TRAP plus 2.5 μmol/L eptifibatide, 30 minutes)	CD154 hydrolysis and appearance of the soluble 18 kDa fragment (washed platelets [1]; TRAP aggregation, 5 μM eptifibatide)	Platelet inhibition (% inhibition) (platelets) [%]	rise of sICAM-1 and IL-6 after PCI ([2]; 2-24 hours after PCI, not statistically significant)	plasma sCD154 levels after PCI ([2]; 30 minutes, 2 hours, 24 hours versus baseline)	plasma RANTES levels after PCI ([2]; versus baseline)	staining with β3 integrin 759-tyrosine phosphospecific antibody (washed platelets [3])	increased expression of ICAM-1 and E-Selectin ([4]; 2 μg/ml of rsCD154, FACS) [fold]	MCP-1 secretion by HUVECS ([4]; 2 μg/ml rsCD154, 4 hrs) [fold]	reduction in clotting time (tissue factor clotting assay) ([4]; HUVECS exposed to rsCD154) [%]
N=C(N)NCCCC[C@@H]1NC(=O)CCSSC[C@@H](C(N)=O)NC(=O)[C@@H]2CCCN2C(=O)[C@H](Cc2c[nH]c3ccccc23)NC(=O)[C@H](CC(=O)O)NC(=O)CNC1=O [eptifibatide] ([Mpa][hArg]GDWPC-NH2; disulfide 1-7)	inhibited	prevented	98±3	lowest level of rise	significantly lower than baseline	significant reductions	–	–	–	–
rsCD154: bacterially expressed recombinant human soluble CD154 (108 a.a-261 a.a.), 18-kDa protein (protein) ENSFEMQKGDQNPQIAAHVISEASSKTTSVLQWAEKGYYTMSNNLVTLENGKQLTVKRQGLYYIYAQVTFCSNREASSQAPFIASLCLKSPGRFERILLRAANTHSSAKPCGQQSIHLGGVFELQPGASVFVNVTDPSQVSHGTGFTSFGLLKL	–	–	–	–	–	–	stained positive	2	3	50
